For the experiment, the system named is IgE antibodies from patients. Nature of the experiment: Wheat epitope mapping (2): overlapping 10-amino-acid peptide fragments shifted by one amino acid.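 As to Rank of partial sequence as epitope binding to IgE antibody: key = sequence deemed particularly important within the common 15-residue sequence.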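 As to epitope sequence binding to IgE antibody, rank (Key/Preferably/More preferably): key of grades: preferably = shorter partial sequence still acting as epitope; more preferably = sequence improving IgE binding; key = particularly important sequence.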 Format: binding, human. To be noted: for Epitope sequence binding to IgE antibody, rank of the sequence (Key/Preferably/More preferably/Further preferably): serum of patient P2 (WDEIA). Put shortly: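 Cellulose-bound 10-mer peptides offset by one residue were probed with patient serum IgE and detected by chemiluminescence. Secondary-antibody-only signals were subtracted per peptide. Residual binding was expressed as % of the parent overlapping peptide, scored as none (<30%), poor (30–<50%), somewhat poor (50–<70%) or retained (≥70%).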

Where [1] appears, read: serum of patient P50 (child, general immediate type allergy to wheat).
The mark [2] stands for this setting: serum of patient P14 (WDEIA), sequence without X.
[3] abbreviates: serum of patient P7 (WDEIA), sequence without X.

Turning to “1177 (QQFPPQ; REGION 1..6: note = epitope) [compound 1177]”, the “Epitope sequence binding to IgE antibody, rank of the sequence” value (serum of patient P8 (WDEIA), sequence without X) is listed as “Key”.
Consider “1715 (KEAA; REGION 1..4: note = epitope) [compound 1715]”, for which, where the note is “serum of patient P35 (WDEIA)”, the “epitope sequence binding to IgE antibody, rank (Key/Preferably/More preferably)” value is “Key”.
On to “2372 (TEIVL; REGION 1..5: note = epitope) [compound 2372]”, for which the “Epitope sequence binding to IgE antibody, rank of the sequence (Key/Preferably/More preferably)” value (serum of patient P26 (WDEIA), sequence without X) is given as “Preferably”.
“1255 (PQQPPC; REGION 1..6: note = epitope) [compound 1255]”: the “Epitope sequence binding to IgE antibody, rank of the sequence” value (serum of patient P36 (WDEIA), sequence without X) is recorded as “Preferably”.
As to “1210 (PIQQQP; REGION 1..6: note = epitope) [compound 1210]”, where the note is “sequence without X”, the “Epitope sequence binding to IgE antibody, rank of the sequence (Key/Preferably/More preferably/Further preferably)” value is “Preferably”.
Turning to “1723 (KEAANF; REGION 1..6: note = epitope) [compound 1723]”, under setting [1], the “epitope sequence binding to IgE antibody, rank (Key/Preferably/More preferably)” value is given as “Key”.
In the case of “1180 (QQFPP; REGION 1..5: note = epitope) [compound 1180]”, the “Epitope sequence binding to IgE antibody, rank of the sequence” value (serum of patient P12 (WDEIA), sequence without X) is recorded as “Key”.
With “1741 (SQVIIM; REGION 1..6: note = epitope) [compound 1741]”, under “serum of patient G1 (adult, general immediate type allergy to wheat)”, the “epitope sequence binding to IgE antibody, rank (Key/Preferably/More preferably)” value was “Key”.
For “1507 (YLQPQ; REGION 1..5: note = epitope) [compound 1507]”, where the note is “serum of patient G9 (adult, general immediate type allergy to wheat), sequence without X”, the “Rank of partial sequence as epitope binding to IgE antibody” value (from here on “Rank of partial sequence”) was “Key”.
Turning to “1769 (KVGYNP; REGION 1..6: note = epitope) [compound 1769]”, the “epitope sequence binding to IgE antibody, rank (Key/Preferably/More preferably)” value (serum of patient P35 (WDEIA)) was “Key”.
On to “1704 (EAANFT; REGION 1..6: note = epitope) [compound 1704]”, for which the “Rank of partial sequence” value (serum of patient P28 (WDEIA), sequence without X) was “Key”.
“2301 (LGGIDK; REGION 1..6: note = epitope) [compound 2301]”: where the note is “serum of patient G4 (adult, general immediate type allergy to wheat), sequence without X”, the “Epitope sequence binding to IgE antibody, rank of the sequence (Key/Preferably/More preferably)” value is “Key”.
With “1881 (TVRTLQR; REGION 1..7: note = epitope) [compound 1881]”, the “epitope sequence binding to IgE antibody, rank (Key/Preferably/More preferably)” value (serum of patient P33 (WDEIA)) is “Key”.
For “1920 (LVQQQQFPGQ; REGION 1..10: note = epitope) [compound 1920]”, under “serum of patient P10 (WDEIA)”, the “epitope sequence binding to IgE antibody, rank (Key/Preferably/More preferably)” value is reported as “Key”.
In the case of “1944 (QFPGQQQ; REGION 1..7: note = epitope) [compound 1944]”, the “epitope sequence binding to IgE antibody, rank (Key/Preferably/More preferably)” value (serum of patient P22 (WDEIA)) was “More preferably”.
For the substance “1451 (LQPQQPISQ; REGION 1..9: note = epitope) [compound 1451]”, under “serum of patient P22 (WDEIA), sequence without X”, the “Rank of partial sequence” value was “More preferably”.
In the case of “2697 (YKGPTL; REGION 1..6: note = epitope) [compound 2697]”, the “Epitope sequence binding to IgE antibody, rank of the sequence” value (serum of patient G6 (adult, general immediate type allergy to wheat), partial sequence) is “Key”.
As to “1966 (QFPGQQ; REGION 1..6: note = epitope) [compound 1966]”, the “epitope sequence binding to IgE antibody, rank (Key/Preferably/More preferably)” value (serum of patient P33 (WDEIA)) is reported as “Key”.
For the substance “2345 (YVTEIVL; REGION 1..7: note = epitope) [compound 2345]”, the “Epitope sequence binding to IgE antibody, rank of the sequence (Key/Preferably/More preferably)” value (serum of patient P9 (WDEIA), sequence without X) is “More preferably”.
For “1884 (TVRTLQRT; REGION 1..8: note = epitope) [compound 1884]”, the “epitope sequence binding to IgE antibody, rank (Key/Preferably/More preferably)” value (serum of patient P35 (WDEIA)) is “Preferably”.
In the case of “2507 (SQVSF; REGION 1..5: note = epitope) [compound 2507]”, under “serum of patient P20 (WDEIA), partial sequence”, the “Epitope sequence binding to IgE antibody, rank of the sequence” value is reported as “Key”.
As to “1856 (YTVRTLQRT; REGION 1..9: note = epitope) [compound 1856]”, the “epitope sequence binding to IgE antibody, rank (Key/Preferably/More preferably)” value (serum of patient P18 (WDEIA)) was “More preferably”.
Consider “1442 (YLQPQQPIS; REGION 1..9: note = epitope) [compound 1442]”, for which the “Rank of partial sequence” value (serum of patient P18 (WDEIA), sequence without X) was “Key”.
For “1394 (QPLP; REGION 1..4: note = epitope) [compound 1394]”, the “Epitope sequence binding to IgE antibody, rank of the sequence” value (serum of patient P21 (WDEIA), sequence without X) was “Key”.
As to “1296 (ILPRSDCKV; REGION 1..9: note = epitope) [compound 1296]”, the “Epitope sequence binding to IgE antibody, rank of the sequence” value (serum of patient G7 (adult, general immediate type allergy to wheat), sequence without X) is “Key”.
“1411 (QQPISQQQAQ; REGION 1..10: note = epitope) [compound 1411]”: under “serum of patient P3 (WDEIA), sequence without X”, the “Epitope sequence binding to IgE antibody, rank of the sequence” value is given as “Preferably”.
Turning to “1385 (KPWQQQPLP; REGION 1..9: note = epitope) [compound 1385]”, the “Epitope sequence binding to IgE antibody, rank of the sequence” value under setting [2] is “Preferably”.
With “1439 (SQQQA; REGION 1..5: note = epitope) [compound 1439]”, for the setting “serum of patient P16 (WDEIA), sequence without X”, the “Rank of partial sequence” value is recorded as “Key”.
On to “1885 (RTLQ; REGION 1..4: note = epitope) [compound 1885]”, for which the “epitope sequence binding to IgE antibody, rank (Key/Preferably/More preferably)” value (serum of patient P35 (WDEIA)) was “Key”.
Take “2570 (QLVQQ; REGION 1..5: note = epitope) [compound 2570]”: the “Epitope sequence binding to IgE antibody, rank of the sequence” value (serum of patient P27 (WDEIA), partial sequence) is given as “Key”.
In the case of “2688 (YKGPTL; REGION 1..6: note = epitope) [compound 2688]”, the “Epitope sequence binding to IgE antibody, rank of the sequence” value (serum of patient P29 (WDEIA), partial sequence) is reported as “Key”.
As for “2561 (LVQQL; REGION 1..5: note = epitope) [compound 2561]”, the “Epitope sequence binding to IgE antibody, rank of the sequence” value (serum of patient P22 (WDEIA), partial sequence) is “Key”.
With “1213 (PIQQQPQPFP; REGION 1..10: note = epitope) [compound 1213]”, the “Epitope sequence binding to IgE antibody, rank of the sequence” value under setting [3] is listed as “Preferably”.
As for “2259 (RNYRV; REGION 1..5: note = epitope) [compound 2259]”, where the note is “serum of patient P55 (child, general immediate type allergy to wheat), sequence without X”, the “Epitope sequence binding to IgE antibody, rank of the sequence (Key/Preferably/More preferably)” value is recorded as “Key”.
With “1316 (VEDNRRALR; REGION 1..9: note = epitope) [compound 1316]”, under setting [2], the “Epitope sequence binding to IgE antibody, rank of the sequence” value is reported as “Key”.
“1735 (EAANFT; REGION 1..6: note = epitope) [compound 1735]”: the “epitope sequence binding to IgE antibody, rank (Key/Preferably/More preferably)” value (serum of patient P56 (child, general immediate type allergy to wheat)) is “Key”.
Turning to “1594 (QPQQPFP; REGION 1..7: note = epitope) [compound 1594]”, under “serum of patient P52 (child, general immediate type allergy to wheat), sequence without X”, the “Rank of partial sequence” value was “Further preferably”.
For the substance “1643 (PDKVPFVPIS; REGION 1..10: note = epitope) [compound 1643]”, the “Rank of partial sequence” value (serum of patient P35 (WDEIA), sequence without X) is “Key”.
Consider “2270 (DKRVIERFEK; REGION 1..10: note = epitope) [compound 2270]”, for which, under setting [3], the “Epitope sequence binding to IgE antibody, rank of the sequence (Key/Preferably/More preferably)” value was “Key”.
With “1651 (NPDKVP; REGION 1..6: note = epitope) [compound 1651]”, the “Rank of partial sequence” value (serum of patient P50 (child, general immediate type allergy to wheat), sequence without X) is given as “Key”.
Turning to “2694 (YKGPTL; REGION 1..6: note = epitope) [compound 2694]”, the “Epitope sequence binding to IgE antibody, rank of the sequence” value (serum of patient P35 (WDEIA), partial sequence) is reported as “Key”.
Take “1771 (KVGYNP; REGION 1..6: note = epitope) [compound 1771]”: the “epitope sequence binding to IgE antibody, rank (Key/Preferably/More preferably)” value under setting [1] is recorded as “Key”.
On to “1259 (LPRS; REGION 1..4: note = epitope) [compound 1259]”, for which, where the note is “sequence without X”, the “Epitope sequence binding to IgE antibody, rank of the sequence (Key/Preferably/More preferably/Further preferably)” value was “Key”.
Turning to “1277 (LPRS; REGION 1..4: note = epitope) [compound 1277]”, where the note is “serum of patient P29 (WDEIA), sequence without X”, the “Epitope sequence binding to IgE antibody, rank of the sequence” value is recorded as “Key”.
Consider “2712 (YKIGG; REGION 1..5: note = epitope) [compound 2712]”, for which the “Epitope sequence binding to IgE antibody, rank of the sequence” value (serum of patient P17 (WDEIA), partial sequence) was “Preferably”.
For the substance “2609 (QLVQQLCC; REGION 1..8: note = epitope) [compound 2609]”, for the setting “serum of patient G7 (adult, general immediate type allergy to wheat), partial sequence”, the “Epitope sequence binding to IgE antibody, rank of the sequence” value is “Key”.
As for “1693 (KEAANFTS; REGION 1..8: note = epitope) [compound 1693]”, for the setting “serum of patient P19 (WDEIA), sequence without X”, the “Rank of partial sequence” value is listed as “Preferably”.
With “2625 (ASLSKRV; REGION 1..7: note = epitope) [compound 2625]”, for the setting “serum of patient G3 (adult, general immediate type allergy to wheat), partial sequence”, the “Epitope sequence binding to IgE antibody, rank of the sequence” value was “Preferably”.
For the substance “1751 (SQVIIM; REGION 1..6: note = epitope) [compound 1751]”, for the setting “serum of patient G7 (adult, general immediate type allergy to wheat)”, the “epitope sequence binding to IgE antibody, rank (Key/Preferably/More preferably)” value was “Key”.
For “1756 (VSSYLKK; REGION 1..7: note = epitope) [compound 1756]”, where the note is “serum of patient P8 (WDEIA)”, the “epitope sequence binding to IgE antibody, rank (Key/Preferably/More preferably)” value was “Key”.
Take “2290 (DKRVIERFE; REGION 1..9: note = epitope) [compound 2290]”: the “Epitope sequence binding to IgE antibody, rank of the sequence (Key/Preferably/More preferably)” value (serum of patient P33 (WDEIA), sequence without X) was “Key”.
As to “1431 (YLQPQQP; REGION 1..7: note = epitope) [compound 1431]”, the “Rank of partial sequence” value (serum of patient P15 (WDEIA), sequence without X) is given as “Key”.
Consider “1854 (RTLQR; REGION 1..5: note = epitope) [compound 1854]”, for which the “epitope sequence binding to IgE antibody, rank (Key/Preferably/More preferably)” value (serum of patient P17 (WDEIA)) is “Key”.

The values above are taken from US20240393292A1, “ALLERGY ANTIGEN AND EPITOPE THEREOF” (HOYU CO., LTD., priority 2019, published 2024).
